± gives the uncertainty stated by the source.
Tests used:
Details in all cases: lysate: 5-cell-line mix (COLO-205, K562, SK-N-BE(2), MV-4-11, OVCAR-8)
BCR [1] = biological target: T1, BCR (UniProt P11274); assay: apparent Kd (Kinobeads competition)
T1 sequence (whole entry): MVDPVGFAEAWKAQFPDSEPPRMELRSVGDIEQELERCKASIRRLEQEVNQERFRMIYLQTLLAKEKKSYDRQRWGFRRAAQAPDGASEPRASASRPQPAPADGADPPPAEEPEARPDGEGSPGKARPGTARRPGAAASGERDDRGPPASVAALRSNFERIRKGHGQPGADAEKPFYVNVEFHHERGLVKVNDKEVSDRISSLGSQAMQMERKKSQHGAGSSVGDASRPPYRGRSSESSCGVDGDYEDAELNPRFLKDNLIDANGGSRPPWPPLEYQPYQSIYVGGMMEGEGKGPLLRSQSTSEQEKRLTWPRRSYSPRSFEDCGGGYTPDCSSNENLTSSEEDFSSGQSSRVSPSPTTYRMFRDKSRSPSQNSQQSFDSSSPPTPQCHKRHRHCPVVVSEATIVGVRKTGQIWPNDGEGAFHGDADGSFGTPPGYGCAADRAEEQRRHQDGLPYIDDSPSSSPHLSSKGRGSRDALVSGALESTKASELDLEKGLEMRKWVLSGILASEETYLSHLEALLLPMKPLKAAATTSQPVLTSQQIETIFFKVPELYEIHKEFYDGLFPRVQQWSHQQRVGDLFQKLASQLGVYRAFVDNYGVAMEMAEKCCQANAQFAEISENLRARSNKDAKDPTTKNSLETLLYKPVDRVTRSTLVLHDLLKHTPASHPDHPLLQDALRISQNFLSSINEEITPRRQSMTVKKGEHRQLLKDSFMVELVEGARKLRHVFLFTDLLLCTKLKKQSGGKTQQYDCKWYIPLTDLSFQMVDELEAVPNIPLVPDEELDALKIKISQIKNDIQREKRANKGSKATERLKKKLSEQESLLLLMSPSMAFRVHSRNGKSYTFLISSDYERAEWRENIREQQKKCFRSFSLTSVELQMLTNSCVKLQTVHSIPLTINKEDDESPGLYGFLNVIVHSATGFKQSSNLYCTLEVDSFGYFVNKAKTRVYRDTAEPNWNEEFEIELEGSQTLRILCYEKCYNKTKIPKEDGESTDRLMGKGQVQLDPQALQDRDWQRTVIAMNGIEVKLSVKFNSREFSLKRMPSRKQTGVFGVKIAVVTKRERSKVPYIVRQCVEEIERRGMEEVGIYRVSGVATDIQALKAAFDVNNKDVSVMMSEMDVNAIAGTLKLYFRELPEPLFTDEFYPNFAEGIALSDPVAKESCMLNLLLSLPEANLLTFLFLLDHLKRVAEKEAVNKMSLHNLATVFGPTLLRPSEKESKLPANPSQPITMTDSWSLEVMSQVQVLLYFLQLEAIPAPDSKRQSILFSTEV

FECH = biological target: T2, FECH (UniProt P22830); assay: apparent Kd (Kinobeads competition)
T2 sequence (whole entry): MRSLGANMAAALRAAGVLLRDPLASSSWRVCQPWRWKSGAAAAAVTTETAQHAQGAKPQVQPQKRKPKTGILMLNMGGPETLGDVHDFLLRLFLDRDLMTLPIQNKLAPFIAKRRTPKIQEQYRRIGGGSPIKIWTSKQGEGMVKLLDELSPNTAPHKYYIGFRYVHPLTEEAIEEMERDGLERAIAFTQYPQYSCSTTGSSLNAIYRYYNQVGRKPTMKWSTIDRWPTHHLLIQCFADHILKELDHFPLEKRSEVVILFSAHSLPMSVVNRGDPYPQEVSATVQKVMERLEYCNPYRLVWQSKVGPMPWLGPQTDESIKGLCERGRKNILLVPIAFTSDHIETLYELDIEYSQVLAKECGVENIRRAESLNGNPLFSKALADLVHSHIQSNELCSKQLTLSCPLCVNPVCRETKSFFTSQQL

PAG1 [2] = biological target: T3, PAG1 (UniProt Q9NWQ8); assay: apparent Kd (Kinobeads competition)
T3 sequence (whole entry): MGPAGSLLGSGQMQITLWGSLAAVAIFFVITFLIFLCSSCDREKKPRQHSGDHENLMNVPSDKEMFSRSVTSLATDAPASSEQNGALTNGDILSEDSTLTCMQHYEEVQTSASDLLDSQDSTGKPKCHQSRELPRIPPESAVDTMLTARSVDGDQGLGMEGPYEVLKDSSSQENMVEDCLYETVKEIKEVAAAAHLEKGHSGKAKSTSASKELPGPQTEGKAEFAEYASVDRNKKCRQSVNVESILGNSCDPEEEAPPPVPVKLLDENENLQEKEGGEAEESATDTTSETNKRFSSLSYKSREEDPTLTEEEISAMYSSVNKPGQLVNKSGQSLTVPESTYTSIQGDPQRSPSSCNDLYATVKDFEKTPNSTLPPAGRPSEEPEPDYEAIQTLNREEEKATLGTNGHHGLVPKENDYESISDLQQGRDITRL

UNC119 [3] = biological target: UNC119 (UniProt Q13432); assay: apparent Kd (Kinobeads competition)
BCR [4] = biological target: T1, BCR; assay: EC50 for competition of Kinobead binding
BTK = BTK (UniProt Q06187); assay: EC50 for competition of Kinobead binding
Chain of BTK (Q06187 whole entry): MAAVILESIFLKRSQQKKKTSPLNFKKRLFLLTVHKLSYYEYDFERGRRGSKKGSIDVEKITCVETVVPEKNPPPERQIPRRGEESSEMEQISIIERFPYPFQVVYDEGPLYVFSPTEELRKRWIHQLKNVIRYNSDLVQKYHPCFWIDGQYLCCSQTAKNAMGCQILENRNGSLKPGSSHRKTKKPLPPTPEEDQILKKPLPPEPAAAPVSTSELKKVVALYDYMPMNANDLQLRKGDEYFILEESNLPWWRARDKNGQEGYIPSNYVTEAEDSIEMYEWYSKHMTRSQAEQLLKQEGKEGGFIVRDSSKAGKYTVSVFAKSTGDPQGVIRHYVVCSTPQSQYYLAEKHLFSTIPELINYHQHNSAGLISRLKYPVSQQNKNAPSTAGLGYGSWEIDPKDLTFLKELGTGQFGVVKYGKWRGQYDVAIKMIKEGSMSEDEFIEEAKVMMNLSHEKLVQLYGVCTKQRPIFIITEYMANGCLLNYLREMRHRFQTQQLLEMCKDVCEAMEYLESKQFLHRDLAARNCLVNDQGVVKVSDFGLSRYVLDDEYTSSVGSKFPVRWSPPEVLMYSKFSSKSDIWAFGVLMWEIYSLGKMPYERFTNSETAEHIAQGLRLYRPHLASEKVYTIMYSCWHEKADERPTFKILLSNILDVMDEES

ABL2 = ABL2 (UniProt P42684); assay: EC50 for competition of Kinobead binding
Chain of ABL2 (P42684 whole entry): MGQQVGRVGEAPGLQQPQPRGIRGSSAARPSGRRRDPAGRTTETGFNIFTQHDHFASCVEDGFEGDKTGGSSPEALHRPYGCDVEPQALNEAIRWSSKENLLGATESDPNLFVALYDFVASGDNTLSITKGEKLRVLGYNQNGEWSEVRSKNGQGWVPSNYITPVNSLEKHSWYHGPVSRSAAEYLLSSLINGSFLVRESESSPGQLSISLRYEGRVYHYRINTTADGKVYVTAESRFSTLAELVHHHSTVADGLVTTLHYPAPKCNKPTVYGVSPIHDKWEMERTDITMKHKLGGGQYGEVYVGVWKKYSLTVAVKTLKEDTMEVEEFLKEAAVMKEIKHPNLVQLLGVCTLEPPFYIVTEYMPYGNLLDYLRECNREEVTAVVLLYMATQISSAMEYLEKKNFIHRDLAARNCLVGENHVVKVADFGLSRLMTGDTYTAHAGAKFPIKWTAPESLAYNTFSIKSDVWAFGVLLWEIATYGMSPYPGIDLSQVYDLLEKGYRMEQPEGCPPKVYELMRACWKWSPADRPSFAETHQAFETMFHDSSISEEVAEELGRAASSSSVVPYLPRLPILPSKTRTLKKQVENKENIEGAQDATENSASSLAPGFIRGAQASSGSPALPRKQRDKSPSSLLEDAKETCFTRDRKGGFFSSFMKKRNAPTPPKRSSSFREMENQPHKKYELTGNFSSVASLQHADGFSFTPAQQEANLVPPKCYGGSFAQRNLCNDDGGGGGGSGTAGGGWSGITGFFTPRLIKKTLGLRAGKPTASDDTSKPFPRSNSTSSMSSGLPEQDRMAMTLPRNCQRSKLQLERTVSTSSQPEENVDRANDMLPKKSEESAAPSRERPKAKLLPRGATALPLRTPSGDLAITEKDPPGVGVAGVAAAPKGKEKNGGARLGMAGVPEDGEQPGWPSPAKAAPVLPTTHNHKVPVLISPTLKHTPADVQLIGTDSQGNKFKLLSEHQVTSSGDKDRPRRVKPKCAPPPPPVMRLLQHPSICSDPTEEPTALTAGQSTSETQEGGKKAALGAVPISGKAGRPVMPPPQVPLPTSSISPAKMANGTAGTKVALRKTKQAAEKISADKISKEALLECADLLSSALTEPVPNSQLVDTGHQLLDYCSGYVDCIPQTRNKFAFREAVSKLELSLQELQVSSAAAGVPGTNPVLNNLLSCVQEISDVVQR

PAG1 [5] = biological target: T3, PAG1; assay: EC50 for competition of Kinobead binding
MAP4K3 = biological target: T4, MAP4K3 (UniProt Q8IVH8); assay: EC50 for competition of Kinobead binding
T4 sequence (whole entry): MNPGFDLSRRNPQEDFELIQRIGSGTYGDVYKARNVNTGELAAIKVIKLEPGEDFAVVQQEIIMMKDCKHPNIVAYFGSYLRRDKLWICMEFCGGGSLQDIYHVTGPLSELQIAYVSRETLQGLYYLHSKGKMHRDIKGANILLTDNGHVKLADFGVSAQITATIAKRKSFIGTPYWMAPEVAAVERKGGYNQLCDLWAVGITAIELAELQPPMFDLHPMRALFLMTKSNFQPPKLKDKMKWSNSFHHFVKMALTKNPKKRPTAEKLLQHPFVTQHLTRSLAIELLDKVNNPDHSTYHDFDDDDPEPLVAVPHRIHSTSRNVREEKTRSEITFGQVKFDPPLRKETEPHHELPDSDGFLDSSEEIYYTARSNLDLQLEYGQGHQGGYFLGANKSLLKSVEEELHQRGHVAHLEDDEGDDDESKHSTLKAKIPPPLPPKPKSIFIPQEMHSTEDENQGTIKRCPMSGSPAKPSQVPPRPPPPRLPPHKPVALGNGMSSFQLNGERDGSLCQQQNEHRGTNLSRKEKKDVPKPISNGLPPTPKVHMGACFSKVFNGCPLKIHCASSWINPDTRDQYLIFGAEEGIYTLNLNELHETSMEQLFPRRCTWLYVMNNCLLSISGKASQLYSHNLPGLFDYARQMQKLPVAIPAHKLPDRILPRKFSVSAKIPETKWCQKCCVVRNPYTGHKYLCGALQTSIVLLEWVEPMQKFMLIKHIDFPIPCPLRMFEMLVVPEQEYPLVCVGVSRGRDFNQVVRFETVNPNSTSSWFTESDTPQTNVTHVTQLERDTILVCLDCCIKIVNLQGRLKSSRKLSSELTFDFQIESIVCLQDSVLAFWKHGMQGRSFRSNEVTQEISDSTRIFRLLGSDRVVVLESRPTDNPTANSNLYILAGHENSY

UNC119 [6] = biological target: UNC119 (UniProt Q13432); assay: EC50 for competition of Kinobead binding
FRK = FRK (UniProt P42685); assay: EC50 for competition of Kinobead binding
Chain of FRK (P42685 whole entry): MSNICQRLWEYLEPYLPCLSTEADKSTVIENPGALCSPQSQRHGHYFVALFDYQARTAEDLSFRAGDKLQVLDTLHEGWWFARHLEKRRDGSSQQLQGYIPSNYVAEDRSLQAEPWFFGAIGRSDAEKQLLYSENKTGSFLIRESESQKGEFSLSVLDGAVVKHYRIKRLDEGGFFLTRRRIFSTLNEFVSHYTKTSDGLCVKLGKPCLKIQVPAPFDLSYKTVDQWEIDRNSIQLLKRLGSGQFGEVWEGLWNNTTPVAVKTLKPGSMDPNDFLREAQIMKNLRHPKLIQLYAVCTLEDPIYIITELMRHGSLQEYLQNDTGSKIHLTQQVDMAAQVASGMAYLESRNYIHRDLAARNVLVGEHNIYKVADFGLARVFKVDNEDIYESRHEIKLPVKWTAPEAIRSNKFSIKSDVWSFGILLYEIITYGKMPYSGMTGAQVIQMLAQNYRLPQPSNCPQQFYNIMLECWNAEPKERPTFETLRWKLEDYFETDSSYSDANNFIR

ABL1 = ABL1 (UniProt P00519); assay: EC50 for competition of Kinobead binding
Chain of ABL1 (P00519 whole entry): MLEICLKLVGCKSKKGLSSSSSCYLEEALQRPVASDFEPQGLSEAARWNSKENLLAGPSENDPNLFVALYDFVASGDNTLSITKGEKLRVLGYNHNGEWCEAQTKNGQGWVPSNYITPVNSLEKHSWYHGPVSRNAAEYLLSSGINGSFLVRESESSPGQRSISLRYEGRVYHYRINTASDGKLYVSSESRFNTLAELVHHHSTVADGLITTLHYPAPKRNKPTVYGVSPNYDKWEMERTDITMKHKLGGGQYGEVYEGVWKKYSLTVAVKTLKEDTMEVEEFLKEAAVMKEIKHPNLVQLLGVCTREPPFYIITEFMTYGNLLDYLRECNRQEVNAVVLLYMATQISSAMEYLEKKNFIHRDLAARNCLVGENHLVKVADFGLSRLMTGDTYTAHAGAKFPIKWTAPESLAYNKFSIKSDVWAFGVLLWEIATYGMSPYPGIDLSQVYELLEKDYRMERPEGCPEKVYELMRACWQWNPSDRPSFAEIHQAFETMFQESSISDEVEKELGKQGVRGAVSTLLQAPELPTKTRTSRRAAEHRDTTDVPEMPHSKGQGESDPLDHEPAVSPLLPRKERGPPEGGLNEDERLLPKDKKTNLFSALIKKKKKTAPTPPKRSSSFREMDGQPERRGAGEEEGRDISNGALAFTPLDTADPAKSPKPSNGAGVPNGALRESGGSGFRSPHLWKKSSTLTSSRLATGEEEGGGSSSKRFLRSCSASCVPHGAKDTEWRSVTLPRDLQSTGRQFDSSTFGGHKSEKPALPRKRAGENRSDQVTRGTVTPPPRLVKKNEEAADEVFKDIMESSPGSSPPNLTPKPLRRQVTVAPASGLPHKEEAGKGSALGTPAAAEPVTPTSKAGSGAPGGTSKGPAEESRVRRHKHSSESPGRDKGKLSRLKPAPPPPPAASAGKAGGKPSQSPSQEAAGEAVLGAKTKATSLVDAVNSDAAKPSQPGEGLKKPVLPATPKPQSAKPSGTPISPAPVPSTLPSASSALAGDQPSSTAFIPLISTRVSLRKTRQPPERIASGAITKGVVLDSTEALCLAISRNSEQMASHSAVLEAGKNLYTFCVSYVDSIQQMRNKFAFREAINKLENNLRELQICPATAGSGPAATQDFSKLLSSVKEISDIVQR

COc1ccc2c(C(=O)Nc3ccc(NC(=O)c4nn(C5CCN(C(=O)CC(C)(C)C#N)CC5)c5ccc(F)cc45)cc3Cl)cnn2c1 [Src Inhibitor 3]
Kd (BCR [1]): 127 nM
Kd (FECH): 6350 nM
Kd (PAG1 [2]): 48.4 nM
Kd (UNC119 [3]): 24.1 nM
EC50 (BCR [4]): 790 ± 430 nM
EC50 (BTK): 4250 ± 2700 nM
EC50 (ABL2): 332 ± 170 nM
EC50 (PAG1 [5]): 70.9 ± 11 nM
EC50 (MAP4K3): 14300 ± 28000 nM
EC50 (UNC119 [6]): 904 ± 250 nM
EC50 (FRK): 17600 ± 34000 nM
EC50 (ABL1): 1530 ± 2600 nM

From the supplement of paper PMC12823440, “Inhibitors supercharge kinase turnover through native proteolytic circuits” (Nature, 2025)
